Test results as given in patent publication US4411890A, “Synthetic peptides having pituitary growth hormone releasing activity” (Beckman Instruments, Inc., priority 1981, dated 1983).
Where a SMILES comes first, the peptide text is derived from it.

Experiments:
pituitaries = assay: In vitro growth hormone release study (incubated rat pituitaries, GH by RIA); type: cell-based; conditions: GH released at I3, I4 (I5) minus P2, mean ± SEM
Method: Female rats of the CD-1 strain were housed in a constant temperature room at 24° C. with 14 hours light and 10 hours darkness. The rats were fed Purina brand rat chow ab libitum. All studies were started between 0800 and 1000 hours.
Pituitaries were removed from 20 day old female rats. In each polytetrafluoroethylene beaker (10 ml) was incubated two pituitaries at 36° C. in 1 ml of lactated Ringer's solution in a Dubnoff Shaker (90 cycles/min.). All medium in each beaker was removed each hour (e.g., P1, P2, I3, I4, I5) and then fresh medium was added back to each beaker. Each medium removed was assayed for GH, in duplicate, by a standard radioimmunoassay (RIA).
The growth hormone agonist of Example 1 was not added to the incubation mediums employed during the first hour of the incubation period (P1) or to the incubation mediums employed during the second hour of the incubation period (P2). The growth hormone agonist of Example 1 was dissolved in dimethylsulfoxide (DMSO; 10:1, agonist:DMSO), added to each incubation medium employed during the third hour of the incubation period (I3), to each medium employed during the fourth hour of the incubation period (I4), and, when performed, to each medium employed during the fifth hour of the incubation period (I5). The release of growth hormone was recorded as ΔGH and calculated by subtracting the amount of GH released at P2 from that released at I3, I4, and, when performed, I5. The agonist activity was determined from the release at I3, I4, and, when performed, I5. The mean of the ΔGH values obtained from the three beakers per dosage level measured at I3, I4, and, when performed, I5 are set forth in Table VI.

[1] = tested on: Female rats of The CD-1 strain; assay: In vivo growth hormone release study (subcutaneous injection, serum GH by RIA); set-up: species or system rat; conditions: serum GH about 15 minutes after injection, 21 day old female rats, mean ± SEM
Method: Female rats of The CD-1 strain were housed in a constant temperature room at 24° C. with 14 hours light and 10 hours darkness. The rats were fed Purina brand rat chow ab libitum. All studies were started between 0800 and 1000 hours. Each female rat (21 days old; eight rats per dosage level shown in Table XXVI) was injected subcutaneously with a desired dosage of the peptide of Example 6. Approximately 15 minutes after injection, the rat was guillotined. A blood sample was collected from the guillotined rat. The blood sample was centrifuged and a serum sample was collected therefrom. Each serum sample was assayed for GH, in duplicate, by a standard radioimmunoassay (RIA).

[2] = dosage 1 ng/ml incubation medium
[3] = dosage 3 ng/ml incubation medium
[4] = dosage 10 ng/ml incubation medium
[5] = dosage 30 ng/ml incubation medium
[6] = dosage 1.0 μg/ml serum (so in the source)
[7] = dosage 3.0 μg/ml serum (so in the source)
[8] = dosage 10.0 μg/ml serum (so in the source)
[9] = dosage 30.0 μg/ml serum (so in the source)
[10] = dosage 0.3 μg/ml serum (so in the source)

Compound	ΔGH (pituitaries; [2]) [ng/ml incubation medium]	ΔGH (pituitaries; [3])	ΔGH (pituitaries; [4])	ΔGH (pituitaries; [5])	ΔGH [1, 6] [ng/ml subcutaneous]	ΔGH [1, 7] [ng/ml subcutaneous]	ΔGH [1, 8] [ng/ml subcutaneous]	ΔGH [1, 9] [ng/ml subcutaneous]	ΔGH [1, 10] [ng/ml subcutaneous]	ΔGH (pituitaries; dosage 100 ng/ml incubation medium)
C[C@H](NC(=O)[C@@H](Cc1c[nH]c2ccccc12)NC(=O)[C@@H](N)Cc1c[nH]cn1)C(=O)N[C@@H](Cc1c[nH]c2ccccc12)C(=O)N[C@H](Cc1ccccc1)C(=O)N[C@@H](CCC(=O)O)C(N)=O [H2 -His-D-Trp-Ala-Trp-D-Phe-Glu-NH2] (HELM PEPTIDE1{H.[dW].A.W.[dF].E.[am]}$$$$V2.0)	-78 ± 72	-294 ± 75 ng/ml incubation medium	-243 ± 71 ng/ml incubation medium	117 ± 41 ng/ml incubation medium	0.10 ± 0	1.50 ± 0.56	1.4 ± 0.78	8.06 ± 2.68		
C[C@H](NC(=O)[C@@H](Cc1c[nH]c2ccccc12)NC(=O)[C@@H](N)Cc1c[nH]cn1)C(=O)N[C@@H](Cc1c[nH]c2ccccc12)C(=O)N[C@H](Cc1ccccc1)C(=O)N[C@@H](CCCCN)C(N)=O [H2 -His-D-Trp-Ala-Trp-D-Phe-Lys-NH2] (HELM PEPTIDE1{H.[dW].A.W.[dF].K.[am]}$$$$V2.0)	955 ± 272	1,603 ± 305 ng/ml incubation medium	2,244 ± 173 ng/ml incubation medium	2,198 ± 358 ng/ml incubation medium	36 ± 15	66 ± 15	100 ± 19	122 ± 4	6 ± 4	
H2 -3-N-Me-His-D-Trp-Ala-Trp-D-Phe-Lys-NH2	165 ± 136		1,857 ± 254 ng/ml incubation medium				128 ± 16		45.0 ± 10	
H2 -His-D-Trp-Ala-Trp-D-Phe-Lys-NHCH2 CH3	726 ± 115		1,688 ± 300 ng/ml incubation medium				119 ± 12		13.0 ± 5	
H2 -His-D-Trp-Ala-Trp-D-Phe-Lys-OH	467 ± 178		330 ± 167 ng/ml incubation medium			76 ± 24	119 ± 25	226 ± 43		2,441 ± 353 ng/ml incubation medium
